The test system of series [1] is IL-8. Put plainly: LPS-induced IL-8 release in d-U937 cells. In kind it is cell-based. The note with it: Homo sapiens, dU937, dU937 cells. The procedure, abridged: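 U937 cells differentiated with PMA (100 ng/mL, 48–72 hr) were pre-incubated with compound for 2 hr, then stimulated with E. coli O111:B4 LPS (0.1 μg/mL) for 4 hr. Supernatant cytokine measured by sandwich ELISA; inhibition vs vehicle control at each concentration, REC50 taken from the concentration-response curve.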

The test system of another series is ICAM-1. Put plainly: Poly I:C-induced ICAM-1 expression in BEAS2B cells. The format is cell-based. Particulars: Homo sapiens, BEAS-2B, read-out: PolyIC/ICAM1 IC50 (BEAS2B). The procedure:
Poly I:C was used in these studies as a simple, RNA virus mimic. Poly I:C-Oligofectamine mixture (1 μg/mL Poly I:C, ±2% Oligofectamine, 25 μL; Invivogen Ltd., San Diego, Calif., and Invitrogen, Carlsbad, Calif., respectively) was transfected into BEAS2B cells (human bronchial epithelial cells, ATCC). Cells were pre-incubated with final concentrations of test compounds for 2 hr and the level of ICAM-1 expression on the cell surface was determined by cell-based ELISA. At a time point 18 hr after poly I:C transfection, cells were fixed with 4% formaldehyde in PBS (100 μL) and then endogenous peroxidase was quenched by the addition of washing buffer (100 μL, 0.05% Tween in PBS: PBS-Tween) containing 0.1% sodium azide and 1% hydrogen peroxide. Cells were washed with wash-buffer (3×200 μL). and after blocking the wells with 5% milk in PBS-Tween (100 μL) for 1 hr, the cells were incubated with anti-human ICAM-1 antibody (50 μL; Cell Signaling Technology, Danvers, Mass.) in 1% BSA PBS overnight at 4° C.
The cells were washed with PBS-Tween (3×200 μL) and incubated with the secondary antibody (100 μL; HRP-conjugated anti-rabbit IgG, Dako Ltd., Glostrup, Denmark). The cells were then incubated with of substrate (50 μL) for 2-20 min, followed by the addition of stop solution (50 μL, 1N H2SO4). The ICAM-1 signal was detected by reading […] the absorbance at 450 nm against a reference wavelength of 655 nm using a spectrophotometer. The cells were then washed with PBS-Tween (3×200 μL) and total cell numbers in each well were determined by reading absorbance at 595 nm after Crystal Violet staining (50 μL of a 2% solution in PBS) and elution by 1% SDS solution (100 μL) in distilled water. The measured OD 450-655 readings were corrected for cell number by dividing with the OD595 reading in each well. The inhibition of ICAM-1 expression was calculated at each concentration of test compound by comparison with vehicle control.

Another series has as its system d-U937 cells. Put plainly: Cell viability: MTT assay. The format is cell-based, human. Particulars: 1 μg/mL. As to the method:
Differentiated U937 cells were pre-incubated with each test compound (final concentration 1 μg/mL or 10 μg/mL in 200 μL media indicated below) under two protocols: the first for 4 hr in 5% FCS RPMI1640 media and the second in 10% FCS RPMI1640 media for 24 h. The supernatant was replaced with new media (200 μL) and MTT stock solution (10 μL, 5 mg/mL) was added to each well. After incubation for 1 hr the media were removed, DMSO (200 μL) was added to each well and the plates were shaken lightly for 1 hr prior to reading the absorbance at 550 nm. The percentage loss of cell viability was calculated for each well relative to vehicle (0.5% DMSO) treatment. Consequently an apparent increase in cell viability for drug treatment relative to vehicle is tabulated as a negative percentage.

The subject of series [2] is IL-8. Put plainly: LPS-stimulated IL-8 production in sputum macrophages from COPD. The format is cell-based. Particulars: Homo sapiens, Macrophage. As to the method: (§1) Patients with COPD were inhaled with a nebulised solution of 3% (w/v) hypertonic saline using an ultrasonic nebuliser (Devilbiss, Carthage, Mo.) with tidal breathing for 5 min. This procedure was repeated a maximum of three times until enough sputum was obtained. The sputum samples were homogenized and mixed vigorously using a vortex mixer in 0.02% v/v dithiothreitol (DTT) solution. The samples were re-suspended in PBS (40 mL) followed by centrifugation at 1500 rpm at 4° C. for 10 min to obtain sputum cell pellets. The pellets were washed twice with PBS (40 mL). The sputum cells were then re-suspended in macrophage serum-free medium (macrophage-SFM, Life technologies, Paisley, UK; to achieve 2×10^6/well in a 24 well plate) containing 20 U/mL penicillin, 0.02 mg/mL streptomycin and 5 μg/mL amphotericin B and seeded on high bound 96-well plate, followed by incubation for 2 hr at 37° C. and at 5% CO2 to allow the macrophages to attach to the bottom of the plate. The cells on the plate were washed with fresh macrophage-SFM (200 μL/well) to remove neutrophils and other contaminated cells. The adherent cells (mainly sputum macrophages) on the plate were used for further analysis. Sputum induction and isolation were conducted in Quintiles Drug Research Unit at Guys Hospital and ethics approval and written informed consent was obtained by Quintiles.
(§2) Where appropriate, 1 μL of a solution containing either the test compound or reference article at the stated concentrations or alternatively 1 μL of DMSO as the vehicle control was added to each well (200 μL in media) and the cells were incubated for 2 hr. […] After washing with 200 uL wash buffer per well, the beads were resuspended in sheath fluid (150 μL) and analyzed immediately. The level of each analyte in the supernatant was calculated using Xcel Fit software with a 4 or 5-parameter equation using each standard curve. The inhibitions of each cytokine production were calculated at each concentration by comparison with vehicle control. The IC50 values were determined from concentration-inhibition curves using XL-Fit (idbs, Guildford, UK)

The next series relates to MIP1α. Put plainly: LPS-stimulated MIP1α production in sputum macrophages from COPD. The format is cell-based. Particulars: Homo sapiens, Macrophage. The procedure:
as §1, §2

pIC50: −log10 of the molar value.

`Cc1ccc(-n2nc(C(C)(C)C)cc2NC(=O)Nc2ccc(Oc3ccnc(Nc4cccc(O)c4)n3)c3ccccc23)cc1` [Example 2, 1-(3-(tert-Butyl)-1-(p-tolyl)-1H-pyrazol-5-yl)-3-(4-((2-((3-hydroxyphenyl)amino)pyrimidin-4-yl)oxy)naphthalen-1-yl)urea]: the values for the pIC50 in the series with IL-8 [1] and in the series with ICAM-1 were 8.57 and 8.37, respectively. The “MTT Assay Cell viability at time point in d-U937 Cells 4 h” value in the series on d-U937 cells (4 h) is “−ve (−ve and +ve indicate the value is below and above respectively, the no significant effect threshold defined as 30% inhibition at 1 μg/mL at the time point indicated)”. In addition, the “MTT Assay Cell viability at time point in d-U937 Cells 24 h” value in the series with d-U937 cells (24 h) was “−ve (−ve and +ve indicate the value is below and above respectively, the no significant effect threshold defined as 30% inhibition at 1 μg/mL at the time point indicated)”.

For the molecule `Cc1ccc(-n2nc(C(C)(C)C)cc2NC(=O)Nc2ccc(Oc3ccnc(Nc4ccccc4)n3)c3ccccc23)cc1` [Example 1, 1-(3-(tert-Butyl)-1-(p-tolyl)-1H-pyrazol-5-yl)-3-(4-(2-(phenylamino)pyrimidin-4-yloxy)naphthalen-1-yl)urea], the pIC50 in the series with IL-8 [2] (COPD patients, LPS) is 7.17; with MIP1α (COPD patients, LPS) it was 8.12. For the same molecule, the Emax at 0.1 µg/mL in the series on IL-8 [2] (read-out: IL-8 E max, sputum macrophage) turned out to be 64%; in the series with MIP1α (read-out: MIP1α E max, sputum macrophage), 89%.

The record behind these values is patent US10238658B2, “1-pyrazolyl-3-(4-((2-anilinopyrimidin-4-yl) oxy) napththalen-1-yl) ureas as p38 MAP kinase inhibitors” (Respivert Limited, priority 2011, dated 2019).
